Test results: US12139492B2 (Endotarget Inc., priority 2021, dated 2024)

Assays:
BTK = BTK (Homo sapiens, UniProt Q06187); experiment: Degradation of BTK protein in Namalwa cells (Western blot; DC50, Dmax); conditions: for DC50: BTK degradation, cell line not given
JeKo-1 cells = experiment: Antiproliferative effect, MTS cell viability assay, JeKo-1 cells; assay type: cell-based; conditions: Homo sapiens; JeKo-1 mantle cell lymphoma cells; read-out: IC50 (anti-proliferation) JeKO-1 cells
Procedure, shortened: (§1)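 Cells were exposed to compound at 0, 0.001, 0.01, 0.1, 1 and 10 μM for 72 h. Viability was then measured by MTS assay, reading formazan produced by metabolically active cells as absorbance at 490 nm.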

Mino cells = experiment: Antiproliferative effect, MTS cell viability assay, Mino cells; assay type: cell-based; conditions: Homo sapiens, MINO, Mino mantle cell lymphoma cells; read-out: IC50 (anti-proliferation) Mino cells
Procedure, shortened: as §1

Chain of BTK (Q06187 whole entry): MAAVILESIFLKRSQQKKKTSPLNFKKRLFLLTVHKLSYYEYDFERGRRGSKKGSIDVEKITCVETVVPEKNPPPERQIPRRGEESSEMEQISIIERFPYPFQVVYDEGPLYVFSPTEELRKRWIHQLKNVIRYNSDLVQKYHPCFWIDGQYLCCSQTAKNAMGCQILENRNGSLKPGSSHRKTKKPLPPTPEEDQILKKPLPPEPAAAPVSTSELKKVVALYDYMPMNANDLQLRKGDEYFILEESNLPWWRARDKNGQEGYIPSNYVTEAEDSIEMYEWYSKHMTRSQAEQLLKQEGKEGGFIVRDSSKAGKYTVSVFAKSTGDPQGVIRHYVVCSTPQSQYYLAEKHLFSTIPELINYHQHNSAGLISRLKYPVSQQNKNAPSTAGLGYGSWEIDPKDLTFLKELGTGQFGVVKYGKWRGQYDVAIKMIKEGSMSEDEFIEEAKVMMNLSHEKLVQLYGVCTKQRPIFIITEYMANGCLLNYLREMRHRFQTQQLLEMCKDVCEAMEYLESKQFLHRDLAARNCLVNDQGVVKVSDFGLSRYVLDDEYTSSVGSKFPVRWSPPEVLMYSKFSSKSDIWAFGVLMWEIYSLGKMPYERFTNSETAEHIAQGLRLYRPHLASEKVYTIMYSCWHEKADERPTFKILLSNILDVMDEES

Row | SMILES | Dmax (BTK) [%] | DC50 (BTK) [nM] | IC50 (JeKo-1 cells) [nM] | IC50 (Mino cells) [nM]
1 | Nc1ncnc2c1c(-c1ccc(Oc3ccccc3)cc1)nn2C1CCN(C2CCN(C(=O)N3CCC(CCCN4CCN(c5ccc6c(c5)C(=O)N(C5CCC(=O)NC5=O)C6=O)CC4)CC3)CC2)CC1 (stereo not shown) [Compound 263, 5-(4-(3-(1-(4-(4-amino-3-(4-phenoxyphenyl)-1H-pyrazolo[3,4-d]pyrimidin-1-yl)-[1,4′-bipiperidine]-1′-carbonyl)piperidin-4-yl)propyl)piperazin-1-yl)-2-(2,6-dioxopiperidin-3-yl)isoindoline-1,3-dione] | > 90 | 10 to 50 | > 10000 | 1000 to 10000
2 | Nc1ncnc2c1c(-c1ccc(Oc3ccccc3)cc1)nn2C1CCN(C2CCN(C(=O)N3CCC(CCCN4CCN(c5ccc6c(c5)CN(C5CCC(=O)NC5=O)C6=O)CC4)CC3)CC2)CC1 (stereo not shown) [Compound 264, 3-(5-(4-(3-(1-(4-(4-amino-3-(4-phenoxyphenyl)-1H-pyrazolo[3,4-d]pyrimidin-1-yl)-[1,4′-bipiperidine]-1′-carbonyl)piperidin-4-yl)propyl)piperazin-1-yl)-1-oxoisoindolin-2-yl)piperidine-2,6-dione] | > 75 | 10 to 50 | > 10000 | 1000 to 10000
3 | Nc1ncnc2c1c(-c1ccc(Oc3ccccc3)cc1)nn2C1CCN(C2CCN(C(=O)N3CCC(CCCC4CCN(c5ccc6c(c5)C(=O)N(C5CCC(=O)NC5=O)C6=O)CC4)CC3)CC2)CC1 (stereo not shown) [Compound 265, 5-(4-(3-(1-(4-(4-amino-3-(4-phenoxyphenyl)-1H-pyrazolo[3,4-d]pyrimidin-1-yl)-[1,4′-bipiperidine]-1′-carbonyl)piperidin-4-yl)propyl)piperidin-1-yl)-2-(2,6-dioxopiperidin-3-yl)isoindoline-1,3-dione] | > 75 | 10 to 50 | 1000 to 10000 | 1000 to 10000
4 | Nc1ncnc2c1c(-c1ccc(Oc3ccccc3)cc1)nn2C1CCN(C2CCN(C(=O)N3CCC(CCCC4CCN(c5ccc6c(c5)CN(C5CCC(=O)NC5=O)C6=O)CC4)CC3)CC2)CC1 (stereo not shown) [Compound 266, 3-(5-(4-(3-(1-(4-(4-amino-3-(4-phenoxyphenyl)-1H-pyrazolo[3,4-d]pyrimidin-1-yl)-[1,4′-bipiperidine]-1′-carbonyl)piperidin-4-yl)propyl)piperidin-1-yl)-1-oxoisoindolin-2-yl)piperidine-2,6-dione] | > 75 | 10 to 50 | > 10000 | 1000 to 10000
5 | Nc1ncnc2c1c(-c1ccc(Oc3ccccc3)cc1)nn2C1CCN(C2CCN(C(=O)N3CCC(CCCN4CCC(c5ccc6c(c5)C(=O)N(C5CCC(=O)NC5=O)C6=O)CC4)CC3)CC2)CC1 (stereo not shown) [Compound 267, 5-(1-(3-(1-(4-(4-amino-3-(4-phenoxyphenyl)-1H-pyrazolo[3,4-d]pyrimidin-1-yl)-[1,4′-bipiperidine]-1′-carbonyl)piperidin-4-yl)propyl)piperidin-4-yl)-2-(2,6-dioxopiperidin-3-yl)isoindoline-1,3-dione] | > 90 | 10 to 50 | 1000 to 10000 | 1000 to 10000
6 | Nc1ncnc2c1c(-c1ccc(Oc3ccccc3)cc1)nn2C1CCN(C2CCN(C(=O)N3CCC(CCCN4CCC(c5ccc6c(c5)CN(C5CCC(=O)NC5=O)C6=O)CC4)CC3)CC2)CC1 (stereo not shown) [Compound 268, 3-(5-(1-(3-(1-(4-(4-amino-3-(4-phenoxyphenyl)-1H-pyrazolo[3,4-d]pyrimidin-1-yl)-[1,4′-bipiperidine]-1′-carbonyl)piperidin-4-yl)propyl)piperidin-4-yl)-1-oxoisoindolin-2-yl)piperidine-2,6-dione] | > 90 | 10 to 50 | 1000 to 10000 | < 1000
7 | NC(=O)c1c(-c2ccc(Oc3ccccc3)cc2)nn2c1NCCC2C1CCN(CCOCCOCCN2CCN(c3ccc4c(c3)C(=O)N(C3CCC(=O)NC3=O)C4=O)CC2)CC1 (stereo not shown) [Compound 269, 7-(1-(2-(2-(2-(4-(2-(2,6-dioxopiperidin-3-yl)-1,3-dioxoisoindolin-5-yl)piperazin-1-yl)ethoxy)ethoxy)ethyl)piperidin-4-yl)-2-(4-phenoxyphenyl)-4,5,6,7-tetrahydropyrazolo[1,5-a]pyrimidine-3-carboxamide] | > 90 | 10 to 50 | > 10000 | > 10000
8 | NC(=O)c1c(-c2ccc(Oc3ccccc3)cc2)nn2c1NCCC2C1CCN(CCOCCOCCN2CCN(c3ccc4c(c3)CN(C3CCC(=O)NC3=O)C4=O)CC2)CC1 (stereo not shown) [Compound 270, 7-(1-(2-(2-(2-(4-(2-(2,6-dioxopiperidin-3-yl)-1-oxoisoindolin-5-yl)piperazin-1-yl)ethoxy)ethoxy)ethyl)piperidin-4-yl)-2-(4-phenoxyphenyl)-4,5,6,7-tetrahydropyrazolo[1,5-a]pyrimidine-3-carboxamide] | > 90 | 10 to 50 | > 10000 | 1000 to 10000
9 | NC(=O)c1c(-c2ccc(Oc3ccccc3)cc2)nn2c1NCC[C@H]2C1CCN(CCOCCOCCN2CCN(c3ccc4c(c3)C(=O)N(C3CCC(=O)NC3=O)C4=O)CC2)CC1 (stereo partly drawn) [Compound 271, (7S)-7-(1-(2-(2-(2-(4-(2-(2,6-dioxopiperidin-3-yl)-1,3-dioxoisoindolin-5-yl)piperazin-1-yl)ethoxy)ethoxy)ethyl)piperidin-4-yl)-2-(4-phenoxyphenyl)-4,5,6,7-tetrahydropyrazolo[1,5-a]pyrimidine-3-carboxamide] | > 90 | 10 to 50 | > 10000 | 1000 to 10000
10 | NC(=O)c1c(-c2ccc(Oc3ccccc3)cc2)nn2c1NCC[C@H]2C1CCN(CCOCCOCCN2CCN(c3ccc4c(c3)CN(C3CCC(=O)NC3=O)C4=O)CC2)CC1 (stereo partly drawn) [Compound 272, (7S)-7-(1-(2-(2-(2-(4-(2-(2,6-dioxopiperidin-3-yl)-1-oxoisoindolin-5-yl)piperazin-1-yl)ethoxy)ethoxy)ethyl)piperidin-4-yl)-2-(4-phenoxyphenyl)-4,5,6,7-tetrahydropyrazolo[1,5-a]pyrimidine-3-carboxamide] | > 90 | 10 to 50 | > 10000 | 1000 to 10000
11 | NC(=O)c1c(-c2ccc(Oc3ccccc3)cc2)nn2c1NCCC2C1CCN(C(=O)N2CCN(CC3CCN(c4ccc5c(c4)C(=O)N(C4CCC(=O)NC4=O)C5=O)CC3)CC2)CC1 (stereo not shown) [Compound 273, 7-(1-(4-((1-(2-(2,6-dioxopiperidin-3-yl)-1,3-dioxoisoindolin-5-yl)piperidin-4-yl)methyl)piperazine-1-carbonyl)piperidin-4-yl)-2-(4-phenoxyphenyl)-4,5,6,7-tetrahydropyrazolo[1,5-a]pyrimidine-3-carboxamide] | > 90 | 10 to 50 | 1000 to 10000 | < 1000
12 | NC(=O)c1c(-c2ccc(Oc3ccccc3)cc2)nn2c1NCCC2C1CCN(C(=O)N2CCN(CC3CCN(c4ccc5c(c4)CN(C4CCC(=O)NC4=O)C5=O)CC3)CC2)CC1 (stereo not shown) [Compound 274, 7-(1-(4-((1-(2-(2,6-dioxopiperidin-3-yl)-1-oxoisoindolin-5-yl)piperidin-4-yl)methyl)piperazine-1-carbonyl)piperidin-4-yl)-2-(4-phenoxyphenyl)-4,5,6,7-tetrahydropyrazolo[1,5-a]pyrimidine-3-carboxamide] | > 90 | < 10 | < 1000 | < 1000
13 | NC(=O)c1c(-c2ccc(Oc3ccccc3)cc2)nn2c1NCCC2C1CCN(C(=O)N2CCC(CN3CCN(c4ccc5c(c4)C(=O)N(C4CCC(=O)NC4=O)C5=O)CC3)CC2)CC1 (stereo not shown) [Compound 275, 7-(1-(4-((4-(2-(2,6-dioxopiperidin-3-yl)-1,3-dioxoisoindolin-5-yl)piperazin-1-yl)methyl)piperidine-1-carbonyl)piperidin-4-yl)-2-(4-phenoxyphenyl)-4,5,6,7-tetrahydropyrazolo[1,5-a]pyrimidine-3-carboxamide] | > 90 | < 10 | 1000 to 10000 | 1000 to 10000
14 | NC(=O)c1c(-c2ccc(Oc3ccccc3)cc2)nn2c1NCCC2C1CCN(C(=O)N2CCC(CN3CCN(c4ccc5c(c4)CN(C4CCC(=O)NC4=O)C5=O)CC3)CC2)CC1 (stereo not shown) [Compound 276, 7-(1-(4-((4-(2-(2,6-dioxopiperidin-3-yl)-1-oxoisoindolin-5-yl)piperazin-1-yl)methyl)piperidine-1-carbonyl)piperidin-4-yl)-2-(4-phenoxyphenyl)-4,5,6,7-tetrahydropyrazolo[1,5-a]pyrimidine-3-carboxamide] | > 90 | < 10 | < 1000 | < 1000
15 | NC(=O)c1c(-c2ccc(Oc3ccccc3)cc2)nn2c1NCCC2C1CCN(C(=O)N2CCC(CC3CCN(c4ccc5c(c4)C(=O)N(C4CCC(=O)NC4=O)C5=O)CC3)CC2)CC1 (stereo not shown) [Compound 277, 7-(1-(4-((1-(2-(2,6-dioxopiperidin-3-yl)-1,3-dioxoisoindolin-5-yl)piperidin-4-yl)methyl)piperidine-1-carbonyl)piperidin-4-yl)-2-(4-phenoxyphenyl)-4,5,6,7-tetrahydropyrazolo[1,5-a]pyrimidine-3-carboxamide] | > 90 | < 10 | 1000 to 10000 | < 1000
16 | NC(=O)c1c(-c2ccc(Oc3ccccc3)cc2)nn2c1NCCC2C1CCN(C(=O)N2CCC(CC3CCN(c4ccc5c(c4)CN(C4CCC(=O)NC4=O)C5=O)CC3)CC2)CC1 (stereo not shown) [Compound 278, 7-(1-(4-((1-(2-(2,6-dioxopiperidin-3-yl)-1-oxoisoindolin-5-yl)piperidin-4-yl)methyl)piperidine-1-carbonyl)piperidin-4-yl)-2-(4-phenoxyphenyl)-4,5,6,7-tetrahydropyrazolo[1,5-a]pyrimidine-3-carboxamide] | > 90 | < 10 | 1000 to 10000 | < 1000
